From patent publication EP3502102A1, “STING INHIBITORS” (ECOLE POLYTECHNIQUE FEDERALE DE LAUSANNE (EPFL), priority 2017, dated 2019)

Legend:
[1] = target: T1, TBK1 (Homo sapiens, UniProt Q9UHD2); experiment: IFN-beta luciferase reporter in HEK293T cells transfected with TBK1; type: cell-based; settings: 0.01-5µM
T1 construct: expressed in transfected cells; host or cells: HEK293T
T1 sequence (Q9UHD2 1-729): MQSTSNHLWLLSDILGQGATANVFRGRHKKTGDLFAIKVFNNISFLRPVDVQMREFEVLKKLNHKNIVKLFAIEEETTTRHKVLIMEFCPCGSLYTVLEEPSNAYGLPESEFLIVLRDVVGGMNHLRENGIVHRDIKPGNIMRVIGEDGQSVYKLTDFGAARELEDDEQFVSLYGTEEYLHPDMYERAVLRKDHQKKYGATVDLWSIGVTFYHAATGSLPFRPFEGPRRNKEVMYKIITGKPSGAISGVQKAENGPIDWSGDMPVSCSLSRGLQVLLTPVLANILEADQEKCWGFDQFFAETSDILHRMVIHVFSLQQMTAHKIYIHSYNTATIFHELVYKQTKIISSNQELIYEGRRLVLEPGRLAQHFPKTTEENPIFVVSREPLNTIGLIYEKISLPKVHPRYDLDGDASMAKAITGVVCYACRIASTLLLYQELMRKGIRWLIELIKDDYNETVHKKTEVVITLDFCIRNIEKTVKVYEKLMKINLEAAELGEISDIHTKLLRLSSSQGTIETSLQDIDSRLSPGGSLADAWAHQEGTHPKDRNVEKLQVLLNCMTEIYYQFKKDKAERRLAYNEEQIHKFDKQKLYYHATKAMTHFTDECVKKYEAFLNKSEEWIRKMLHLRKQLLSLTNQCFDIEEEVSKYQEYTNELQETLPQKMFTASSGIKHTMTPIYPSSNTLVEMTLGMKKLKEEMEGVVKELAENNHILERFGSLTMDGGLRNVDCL

[2] = target: T2, STING (Mus musculus, UniProt Q3TBT3); experiment: Metabolic labelling with [3H] palmitate, Flag-STING in HEK293T cells; type: cell-based; set-up: expressed in transfected cells; host or cells: HEK293T; settings: HEK293T expressing Flag-STING; 1 µM; CMA 2 h
T2 sequence (Q3TBT3 1-378): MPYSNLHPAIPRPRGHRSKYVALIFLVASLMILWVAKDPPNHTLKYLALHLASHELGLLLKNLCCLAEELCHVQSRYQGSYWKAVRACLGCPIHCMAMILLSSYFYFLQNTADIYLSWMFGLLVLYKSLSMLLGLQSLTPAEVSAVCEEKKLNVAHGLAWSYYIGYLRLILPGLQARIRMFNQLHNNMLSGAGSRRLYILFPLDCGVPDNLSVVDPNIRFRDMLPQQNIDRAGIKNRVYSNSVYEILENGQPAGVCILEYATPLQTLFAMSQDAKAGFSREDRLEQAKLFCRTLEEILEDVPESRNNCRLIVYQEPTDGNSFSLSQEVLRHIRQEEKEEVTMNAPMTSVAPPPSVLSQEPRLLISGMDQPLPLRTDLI
Experimental: (§1) Reporter activity was measured 16 h after compound treatment. A nonlinear regression analysis was performed. […] Circles indicate substitutes compared to C-176. d, e, Chemical compounds from (c) were tested at 0.5 µM for inhibitory activity in HEK293T cells transfected with STING (e) or RIG-I (f) in conjunction with IFN-• luciferase reporter, respectively. b, e, f, Values of inhibitor-treated cells were normalized to DMSO-treated cells. […] Cytokine levels were normalized to DMSO-treated control cells. A nonlinear regression analysis was performed for cGAMP stimulation. b, c, BMDMs were pre-treated with C-178 (0.25 µM) and stimulated with cGAMP, cyclic di-GMP, CMA, 90mer dsDNA or LPS for 3 h. The induction of Ifnb1 mRNA levels was assessed by RT-qPCR. d, Heatmaps of RNA sequencing analysis of BMDMs treated with DMSO or CMA and with or without addition of C-178. […] Reporter activity was measured 16 h after transfection and values were normalized to DMSO-treated control cells. c, BMDMs were treated with C-178 (0.25 µM) for 1 h, washed or left untreated and after an additional hour stimulated with cGAMP. […] Flag-STING was immunoprecipitated from whole cell lysate and analysed by autoradiography. In parallel, cell lysates were analysed by immunoblotting for p-TBK1 and STING. d, HEK293T cells expressing STING were treated as indicated (C-178 (1 µM)) and stimulated with CMA for 1.5 h. […]

[3] = Solubility (comparison); type: physicochemical
[4] = tested on: Trex1 KO mice
[5] = target: T2, STING; experiment: CMA-induced serum cytokines in mice; type: in vivo, C57BL/6 mice; set-up: tissue Jackson Laboratories 000664; host or cells: whole animal, C57BL/6J mice; settings: pre-treated 1 h or 4 h before i.p. CMA; serum 4 h later
[6] = target: T3, endogenous human transferrin receptor (Homo sapiens, UniProt P02786); experiment: Metabolic labelling with [3H] palmitate, endogenous transferrin receptor; type: cell-based; settings: 1 µM
T3 construct: endogenous in cells; host or cells: HEK293T

[7] = mouse, in vivo, ip
[8] = target: T2, STING; experiment: Blue native gel assay of STING clusters; type: cell-based; set-up: expressed in transfected cells; host or cells: HEK293T; settings: C-178, C-176 1 µM, 2-BP 50 µM; CMA 1.5 h
Experimental: as §1

[9] = target: T2, STING; experiment: Flag immunoprecipitation, recruitment of TBK1 to STING; type: cell-based; set-up: expressed in transfected cells; host or cells: HEK293T; settings: HEK293T expressing Flag-STING; 1 µM; CMA 2 h

T3 sequence (P02786 whole entry): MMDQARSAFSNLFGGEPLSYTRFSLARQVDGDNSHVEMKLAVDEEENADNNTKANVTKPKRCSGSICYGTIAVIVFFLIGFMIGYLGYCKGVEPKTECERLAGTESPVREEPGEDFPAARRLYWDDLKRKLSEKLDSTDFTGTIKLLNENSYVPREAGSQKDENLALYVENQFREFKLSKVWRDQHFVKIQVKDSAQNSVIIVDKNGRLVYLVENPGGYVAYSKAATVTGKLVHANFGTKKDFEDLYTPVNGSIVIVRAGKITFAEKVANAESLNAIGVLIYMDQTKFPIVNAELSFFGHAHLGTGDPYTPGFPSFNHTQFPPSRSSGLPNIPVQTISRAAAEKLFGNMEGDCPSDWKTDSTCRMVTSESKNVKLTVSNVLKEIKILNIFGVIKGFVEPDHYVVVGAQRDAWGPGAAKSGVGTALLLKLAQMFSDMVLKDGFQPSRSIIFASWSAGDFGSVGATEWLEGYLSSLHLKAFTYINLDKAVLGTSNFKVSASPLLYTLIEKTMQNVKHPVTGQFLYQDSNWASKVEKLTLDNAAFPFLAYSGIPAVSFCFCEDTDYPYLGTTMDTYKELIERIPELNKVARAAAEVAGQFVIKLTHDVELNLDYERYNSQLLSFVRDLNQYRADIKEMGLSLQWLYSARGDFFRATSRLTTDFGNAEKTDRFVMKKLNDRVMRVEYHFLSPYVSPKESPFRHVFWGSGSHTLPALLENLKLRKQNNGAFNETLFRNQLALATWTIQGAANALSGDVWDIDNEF

O=C(Nc1ccc(I)cc1)c1ccc([N+](=O)[O-])o1 [C-176, N-(4-iodophenyl)-5-nitro-2-furamide]
TBK1-driven IFN induction [1]: neither RIG-I nor TBK1-driven IFN induction was affected
[^3H] palmitate labelling of STING [2]: inhibited
solubility relative to C-178 [3]: improved solubility
serum concentration of type I IFNs ([4]; TREX1 KO mice, compared to vehicle, 11 days): significant decrease
histological analysis of the heart ([4]; TREX1 KO mice, 11 days): decreased cellularity
overt toxicity (weight changes) ([4]; mouse, in vivo): no signs of overt toxicity
increase in serum concentration of IL-6 [5]: completely abrogated
increase in serum concentration of type I IFNs [5]: completely abrogated
[^3H] palmitate labelling of the endogenous transferrin receptor [6]: neither C-178 nor C-176 affected
serum half-life [7]: short
assembly of STING clusters [8]: blocked
recruitment of TBK1 [9]: block
